{
  "source": "patent US5928932A",
  "about": "“Isolated gene encoding an enzyme with UDP-glucose pyrophosphorylase and phosphoglucomutase activities from Cyclotella cryptica” (priority 1996, dated 1999)",
  "target": "T1, purified UGPase/PGMase protein (Cyclotella cryptica, UniProt A0ABD3PLY7)",
  "T1 construct": "both domains act",
  "T1 sequence (A0ABD3PLY7 entry or part of it R291K)": "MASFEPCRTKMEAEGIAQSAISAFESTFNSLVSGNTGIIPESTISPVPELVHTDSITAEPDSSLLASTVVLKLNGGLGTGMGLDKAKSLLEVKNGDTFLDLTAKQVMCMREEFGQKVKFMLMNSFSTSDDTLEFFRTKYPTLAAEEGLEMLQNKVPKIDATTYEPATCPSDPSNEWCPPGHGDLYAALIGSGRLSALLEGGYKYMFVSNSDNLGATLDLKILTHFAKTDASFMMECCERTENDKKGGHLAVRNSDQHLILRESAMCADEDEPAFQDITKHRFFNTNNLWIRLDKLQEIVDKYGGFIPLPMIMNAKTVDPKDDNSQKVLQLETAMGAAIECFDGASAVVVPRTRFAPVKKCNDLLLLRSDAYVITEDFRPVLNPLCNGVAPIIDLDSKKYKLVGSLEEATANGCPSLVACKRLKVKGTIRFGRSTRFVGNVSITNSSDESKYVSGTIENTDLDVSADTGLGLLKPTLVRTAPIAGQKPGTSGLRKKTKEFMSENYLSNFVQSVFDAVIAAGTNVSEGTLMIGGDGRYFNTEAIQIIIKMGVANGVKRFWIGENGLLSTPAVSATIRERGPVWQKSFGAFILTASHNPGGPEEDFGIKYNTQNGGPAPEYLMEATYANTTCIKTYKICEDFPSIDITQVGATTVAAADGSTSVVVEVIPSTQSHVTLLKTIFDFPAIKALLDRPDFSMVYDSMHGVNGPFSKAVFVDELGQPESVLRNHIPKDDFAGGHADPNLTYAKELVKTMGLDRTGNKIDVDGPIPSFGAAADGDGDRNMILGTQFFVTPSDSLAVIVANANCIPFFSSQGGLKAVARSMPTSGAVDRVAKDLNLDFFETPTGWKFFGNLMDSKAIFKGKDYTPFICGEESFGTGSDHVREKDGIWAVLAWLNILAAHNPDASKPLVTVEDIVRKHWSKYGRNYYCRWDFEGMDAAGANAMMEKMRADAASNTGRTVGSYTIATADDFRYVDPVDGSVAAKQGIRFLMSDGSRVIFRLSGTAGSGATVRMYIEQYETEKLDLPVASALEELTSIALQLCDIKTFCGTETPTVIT",
  "assay_type": "biochemical",
  "details": "determined via double reciprocal plots; glucose-6-phosphate versus glucose-1-phosphate as substrate",
  "experimental": "P-4252) were added to each reaction and incubated for one hour at 30° C. The reaction mixtures were spotted onto separate 2.5 cm DE81 filter disks (Whatman Inc.; Fairfield, N.J.), which were then washed in five consecutive batches of water (200 mL each). The radioactivity of each filter was determined by liquid scintillation counting.",
  "data": [
    {"smiles": "O=P(O)(O)OC[C@H]1OC(O)[C@H](O)[C@@H](O)[C@@H]1O", "note": "(stereo partly shown) [glucose-6-phosphate]", "values": [
      {"measurement": "maximum velocity of UDP-glucose formation, fold less than for glucose-1-phosphate", "result": 13, "unit": "fold"}
    ]}
  ]
}
